The values below are quoted from earlier work in patent publication US11260065B2, “Storage-stable ready-to-use injectable formulations of thiotepa” (RK Pharma Solutions LLC, priority 2018, dated 2022).

SMILES strings stand for the structures.

The conditions of data set [1]: acid medium.
For data set [2] the following is noted: water and organic solvents.

For `S=P(N1CC1)(N1CC1)N1CC1` [Thiotepa, tris(1-aziridinyl)phosphine sulfide], the Stability result in data set [1] was “unstable in acid medium”. Moreover, the Solubility result in data set [2] is “soluble in water and organic solvents”.
